Experiment [1] deals with Human KDR (residues 790-1356) (Homo sapiens (Human), UniProt P35968). Kind of experiment: Human KDR kinase assay, HTRF KinEase (Example B-2). Format: biochemical. The settings on record: protocol of Example B-2. An outline of the steps: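 Human KDR residues 790-1356 (0.1 ng/well) in buffer with 5 mM MgCl2, 1 mM MnCl2, 1 mM DTT, biotinylated peptide substrate, ATP at Km (4.0 μM), 3% DMSO, 10 compound concentrations; 40 min, room temperature. EDTA stop, streptavidin-XL665/Eu-TK antibody HTRF read 665/620 nm; 4-parameter IC50.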
In general terms: In TR-FRET formats the signal depends on donor and acceptor labels being close together.

In experiment [2] the target is KDR (phospho-KDR, VEGF165-stimulated HUVEC cells) (Homo sapiens (Human), UniProt P35968). Briefly: KDR autophosphorylation ELISA in HUVEC cells (Example G). As to conditions: cellular activity; KDR autophosphorylation ELISA in HUVEC cells. Format: cell-based. An outline of the steps: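 HUVECs were serum-starved 24 h, given compound as an 8-point dilution series (0.3% DMSO final) for 1 h, then stimulated with 100 ng/mL VEGF165 for 5 min. Lysate phospho-KDR was quantified by sandwich ELISA against a phospho-KDR standard, and IC50s came from a 4-parameter logistic fit.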

Experiment [3] deals with AXL (phospho-AXL, Gas6-stimulated A-172 glioblastoma cells) (Homo sapiens (Human), UniProt P30530). Kind of experiment: AXL autophosphorylation ELISA in A-172 cells (Example E). The settings on record: cellular activity; AXL autophosphorylation ELISA in A-172 cells; read-out: Axl IC50. Format: cell-based. An outline of the steps:
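Phospho-AXL in lysates was quantified by ELISA, normalised to DMSO (100%) and reference inhibitor (0%) controls. IC50 by 4-parameter logistic fit.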
Background: In an ELISA, binding on a coated surface is turned into a signal by an enzyme label.

Counter-ions that a name gives are not always drawn.

The source of these data is patent US12371428B2 (Exelixis, Inc., priority 2019, dated 2025).

KDR (phospho-KDR, VEGF165-stimulated HUVEC cells), sequence (P35968 20-1356): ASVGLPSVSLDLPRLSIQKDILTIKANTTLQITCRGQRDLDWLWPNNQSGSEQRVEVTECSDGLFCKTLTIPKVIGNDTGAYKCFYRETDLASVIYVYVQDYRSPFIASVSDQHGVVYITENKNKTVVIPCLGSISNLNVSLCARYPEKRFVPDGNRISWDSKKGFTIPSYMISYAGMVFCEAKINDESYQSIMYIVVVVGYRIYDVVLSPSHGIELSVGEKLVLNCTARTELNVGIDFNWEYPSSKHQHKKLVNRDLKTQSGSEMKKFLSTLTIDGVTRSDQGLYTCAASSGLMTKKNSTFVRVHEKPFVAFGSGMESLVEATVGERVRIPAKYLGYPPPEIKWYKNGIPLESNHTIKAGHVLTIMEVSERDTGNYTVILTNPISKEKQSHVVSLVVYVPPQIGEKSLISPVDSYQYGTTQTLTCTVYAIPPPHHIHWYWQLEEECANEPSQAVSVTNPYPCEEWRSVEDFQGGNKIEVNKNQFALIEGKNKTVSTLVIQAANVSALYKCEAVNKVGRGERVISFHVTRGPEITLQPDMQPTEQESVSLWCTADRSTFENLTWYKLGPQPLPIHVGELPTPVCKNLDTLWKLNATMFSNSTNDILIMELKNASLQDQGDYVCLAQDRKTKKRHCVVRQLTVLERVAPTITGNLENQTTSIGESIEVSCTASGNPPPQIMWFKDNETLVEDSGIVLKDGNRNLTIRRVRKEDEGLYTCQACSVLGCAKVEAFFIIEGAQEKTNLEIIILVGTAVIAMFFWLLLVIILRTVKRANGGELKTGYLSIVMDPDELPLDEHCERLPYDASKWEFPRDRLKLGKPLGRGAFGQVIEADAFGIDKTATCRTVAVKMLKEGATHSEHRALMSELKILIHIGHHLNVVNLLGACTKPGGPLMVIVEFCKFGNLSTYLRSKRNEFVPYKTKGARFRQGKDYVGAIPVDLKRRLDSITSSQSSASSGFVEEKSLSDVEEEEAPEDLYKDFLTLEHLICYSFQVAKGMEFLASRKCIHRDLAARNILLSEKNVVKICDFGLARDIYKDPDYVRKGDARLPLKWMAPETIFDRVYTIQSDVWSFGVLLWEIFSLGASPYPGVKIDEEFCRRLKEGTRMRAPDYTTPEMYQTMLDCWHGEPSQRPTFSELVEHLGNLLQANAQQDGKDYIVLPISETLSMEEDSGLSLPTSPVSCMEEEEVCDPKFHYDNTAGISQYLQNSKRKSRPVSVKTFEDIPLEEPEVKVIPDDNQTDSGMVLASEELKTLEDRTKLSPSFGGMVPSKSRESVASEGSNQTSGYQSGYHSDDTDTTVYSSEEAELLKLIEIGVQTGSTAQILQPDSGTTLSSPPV
Human KDR (residues 790-1356), sequence (P35968 790-1356): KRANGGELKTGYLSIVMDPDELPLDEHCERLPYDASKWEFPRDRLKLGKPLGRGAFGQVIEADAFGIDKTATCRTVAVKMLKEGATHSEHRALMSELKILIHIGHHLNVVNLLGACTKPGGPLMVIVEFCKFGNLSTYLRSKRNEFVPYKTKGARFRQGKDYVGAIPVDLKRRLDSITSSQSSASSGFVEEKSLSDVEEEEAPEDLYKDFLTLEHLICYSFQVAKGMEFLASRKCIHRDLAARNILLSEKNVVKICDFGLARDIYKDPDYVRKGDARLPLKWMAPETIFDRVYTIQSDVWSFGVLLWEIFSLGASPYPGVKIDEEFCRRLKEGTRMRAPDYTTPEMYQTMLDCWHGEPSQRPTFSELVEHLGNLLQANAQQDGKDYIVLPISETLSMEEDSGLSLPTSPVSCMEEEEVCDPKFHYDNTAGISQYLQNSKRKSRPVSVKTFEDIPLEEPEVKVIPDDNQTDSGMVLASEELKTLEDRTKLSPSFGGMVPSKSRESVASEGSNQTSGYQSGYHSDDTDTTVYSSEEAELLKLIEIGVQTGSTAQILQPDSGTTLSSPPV
AXL (phospho-AXL, Gas6-stimulated A-172 glioblastoma cells), sequence (P30530 26-894): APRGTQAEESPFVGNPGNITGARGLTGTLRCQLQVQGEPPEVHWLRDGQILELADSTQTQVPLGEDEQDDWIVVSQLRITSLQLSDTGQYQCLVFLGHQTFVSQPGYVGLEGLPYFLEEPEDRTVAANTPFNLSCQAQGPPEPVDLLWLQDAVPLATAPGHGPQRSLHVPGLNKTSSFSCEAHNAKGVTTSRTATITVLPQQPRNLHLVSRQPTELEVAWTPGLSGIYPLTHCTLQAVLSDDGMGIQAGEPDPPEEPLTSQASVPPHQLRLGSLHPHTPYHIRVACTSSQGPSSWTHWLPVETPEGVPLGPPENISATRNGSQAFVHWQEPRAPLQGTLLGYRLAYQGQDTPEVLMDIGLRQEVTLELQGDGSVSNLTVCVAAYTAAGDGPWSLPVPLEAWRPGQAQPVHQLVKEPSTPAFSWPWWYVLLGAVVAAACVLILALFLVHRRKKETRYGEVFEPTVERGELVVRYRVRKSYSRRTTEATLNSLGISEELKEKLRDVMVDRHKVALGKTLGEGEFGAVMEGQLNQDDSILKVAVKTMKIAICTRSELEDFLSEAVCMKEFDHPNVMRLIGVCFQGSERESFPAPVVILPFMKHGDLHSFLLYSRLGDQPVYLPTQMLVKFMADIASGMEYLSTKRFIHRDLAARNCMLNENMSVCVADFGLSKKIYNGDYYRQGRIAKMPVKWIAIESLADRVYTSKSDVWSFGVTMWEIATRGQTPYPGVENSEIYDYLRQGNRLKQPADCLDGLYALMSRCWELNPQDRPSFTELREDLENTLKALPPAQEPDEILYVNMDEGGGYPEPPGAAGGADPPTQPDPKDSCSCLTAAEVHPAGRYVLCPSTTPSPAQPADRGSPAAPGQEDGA

Broadly, the IC50 is the concentration needed to halve the response being measured. As to `Cc1ncc(C(=O)Nc2ccc(Oc3ccnc4cc(-c5cnn(C(F)F)c5)cnc34)cc2)c(O)c1-c1ccc(F)cc1` [Compound 611, N-[4-[[7-[1-(Difluoromethyl)pyrazol-4-yl]-1,5-naphthyridin-4-yl]oxy]phenyl]-5-(4-fluorophenyl)-4-hydroxy-6-methylpyridine-3-carboxamide], the IC50 in experiment [1] and in experiment [2] was less than 100 nM each time.
On to `Cc1nc2c(Oc3ccc(NC(=O)c4cn(C(C)C)c(C)c(-c5ccc(F)cc5)c4=O)cc3)ccnc2cc1-c1cnn(C(F)F)c1` [Compound 612, N-[4-[[7-[1-(Difluoromethyl)pyrazol-4-yl]-6-methyl-1,5-naphthyridin-4-yl]oxy]phenyl]-5-(4-fluorophenyl)-6-methyl-4-oxo-1-propan-2-ylpyridine-3-carboxamide hydrochloride], for which the half-maximal inhibitory concentration (IC50) in experiment [1] and in experiment [2] was greater than 300 nM each time.
Consider `Cc1nc2c(Oc3ccc(NC(=O)c4cn(C(C)C)c(C)c(-c5ccc(F)cc5)c4=O)cc3)ccnc2cc1-c1cccnc1` [Compound 613, 5-(4-Fluorophenyl)-6-methyl-N-[4-[(6-methyl-7-pyridin-3-yl-1,5-naphthyridin-4-yl)oxy]phenyl]-4-oxo-1-propan-2-ylpyridine-3-carboxamide hydrochloride], for which the half-maximal inhibitory concentration (IC50) in experiment [1] and in experiment [2] was greater than 300 nM throughout.
For the molecule `Cc1nc2c(Oc3ccc(NC(=O)c4cn(C(C)C)c(C)c(-c5ccc(F)cc5)c4=O)cc3F)ccnc2cc1-c1cnn(C(F)F)c1` [Compound 614, N-[4-[[7-[1-(Difluoromethyl)pyrazol-4-yl]-6-methyl-1,5-naphthyridin-4-yl]oxy]-3-fluorophenyl]-5-(4-fluorophenyl)-6-methyl-4-oxo-1-propan-2-ylpyridine-3-carboxamide hydrochloride], the concentration for half-maximal inhibition (IC50) in experiment [1] and in experiment [2] was greater than 300 nM throughout.
As for `Cc1nc2c(Oc3ccc(NC(=O)c4cnc(C)c(-c5ccc(F)cc5)c4O)cc3F)ccnc2cc1-c1cnn(C(F)F)c1` [Compound 615, N-[4-[[7-[1-(Difluoromethyl)pyrazol-4-yl]-6-methyl-1,5-naphthyridin-4-yl]oxy]-3-fluorophenyl]-5-(4-fluorophenyl)-4-hydroxy-6-methylpyridine-3-carboxamide hydrochloride], the half-inhibitory concentration (IC50) in experiment [1] and in experiment [2] was less than 100 nM throughout.
Consider `Cc1nc2c(Oc3ccc(NC(=O)c4cnc(C)c(-c5ccc(F)cc5)c4O)cc3)ccnc2cc1-c1cccnc1` [Compound 616, 5-(4-Fluorophenyl)-4-hydroxy-6-methyl-N-[4-[(6-methyl-7-pyridin-3-yl-1,5-naphthyridin-4-yl)oxy]phenyl]pyridine-3-carboxamide hydrochloride], for which the results for the half-inhibitory concentration (IC50) in experiment [1] and in experiment [2] were greater than 300 nM and less than 100 nM, respectively.
Consider `Cc1nc2c(Oc3ccc(NC(=O)c4cnc(C)c(-c5ccc(F)cc5)c4O)cc3)ccnc2cc1-c1cnn(C(F)F)c1` [Compound 617, N-[4-[[7-[1-(Difluoromethyl)pyrazol-4-yl]-6-methyl-1,5-naphthyridin-4-yl]oxy]phenyl]-5-(4-fluorophenyl)-4-hydroxy-6-methylpyridine-3-carboxamide hydrochloride], for which the IC50 in experiment [1] was 100 to 300 nM; in experiment [2], less than 100 nM.
In the same order, the values of `Cc1nc2c(Oc3ccc(NC(=O)c4cnc(C)c(-c5ccc(F)cc5)c4O)cc3F)ccnc2cc1-c1cccnc1` [Compound 618, N-[3-Fluoro-4-[(6-methyl-7-pyridin-3-yl-1,5-naphthyridin-4-yl)oxy]phenyl]-5-(4-fluorophenyl)-4-hydroxy-6-methylpyridine-3-carboxamide hydrochloride] are 100 to 300 nM and less than 100 nM.
In the case of `COc1cc2nccc(Oc3ccc(NC(=O)c4cn(CCO)c(C)c(-c5ccc(F)cc5)c4=O)cc3F)c2nc1OC` [Compound 619, N-[4-[(6,7-Dimethoxy-1,5-naphthyridin-4-yl)oxy]-3-fluorophenyl]-5-(4-fluorophenyl)-1-(2-hydroxyethyl)-6-methyl-4-oxopyridine-3-carboxamide], the figures for the 50% inhibitory concentration (IC50) in experiment [1] and in experiment [2] were greater than 300 nM and less than 100 nM, respectively.
In the same order, the values of `Cc1nc2c(Oc3ccc(NC(=O)c4cn(C(C)C)c(C)c(-c5ccc(F)cc5)c4=O)cc3F)ccnc2cc1-c1cccnc1` [Compound 620, N-[3-Fluoro-4-[(6-methyl-7-pyridin-3-yl-1,5-naphthyridin-4-yl)oxy]phenyl]-5-(4-fluorophenyl)-6-methyl-4-oxo-1-propan-2-ylpyridine-3-carboxamide] are greater than 300 nM and greater than 300 nM.
In the same order, the values of `COc1cc2ncnc(Oc3ccc(NC(=O)c4cn(C(C)C)cc(-c5ccc(F)cc5)c4=O)cc3F)c2nc1OC` [Compound 636, N-[4-(6,7-dimethoxypyrido[3,2-d]pyrimidin-4-yl)oxy-3-fluorophenyl]-5-(4-fluorophenyl)-4-oxo-1-propan-2-ylpyridine-3-carboxamide] are less than 100 nM and greater than 300 nM.
For the molecule `COc1cc2ncnc(Oc3ccc(NC(=O)c4cn(-c5cnn(C)c5)cc(-c5ccc(F)cc5)c4=O)cc3F)c2nc1OC` [Compound 637, N-[4-(6,7-dimethoxyprido[3,2-d]pyrimidin-4-yl)oxy-3-fluorophenyl]-5-(4-fluorophenyl)-1-(1-methylpyrazol-4-yl)-4-oxopyridine-3-carboxamide], the IC50 in experiment [1] and in experiment [2] was greater than 300 nM throughout.
`COc1cc2c(Oc3ccc(NC(=O)c4cnc(C)c(-c5ccc(F)cc5)c4O)cc3F)ccnc2cn1` [Compound 639, N-[3-fluoro-4-[(6-methoxy-1,7-naphthyridin-4-yl)oxy]phenyl]-5-(4-fluorophenyl)-4-hydroxy-6-methylpyridine-3-carboxamide]: the 50% inhibitory concentration (IC50) in experiment [1] was greater than 300 nM; in experiment [2], less than 100 nM.
The matching figures for `COc1cc2c(Oc3ccc(NC(=O)c4cn(C5CC5)c(C)c(-c5ccc(F)cc5)c4=O)cc3F)ccnc2cn1` [Compound 640, 1-cyclopropyl-N-[3-fluoro-4-[(6-methoxy-1,7-naphthyridin-4-yl)oxy]phenyl]-5-(4-fluorophenyl)-6-methyl-4-oxopyridine-3-carboxamide]: greater than 300 nM and greater than 300 nM.
Take `Cc1ncc(C(=O)Nc2ccc(Oc3ccnc4cnc(Cl)cc34)c(F)c2)c(O)c1-c1ccc(F)cc1` [Compound 641, N-[4-[(6-chloro-1,7-naphthyridin-4-yl)oxy]-3-fluorophenyl]-5-(4-fluorophenyl)-4-hydroxy-6-methylpyridine-3-carboxamide]: the half-inhibitory concentration (IC50) was greater than 300 nM in experiment [1] and less than 100 nM in experiment [2].
Take `Cc1ncc(C(=O)Nc2ccc(Oc3ccnc4cnccc34)c(F)c2)c(O)c1-c1ccc(F)cc1` [Compound 642, N-[3-fluoro-4-(1,7-naphthyridin-4-yloxy)phenyl]-5-(4-fluorophenyl)-4-hydroxy-6-methylpyridine-3-carboxamide]: the half-inhibitory concentration (IC50) in experiment [1], in experiment [3] and in experiment [2] was less than 100 nM throughout.
Consider `Cc1ncc(C(=O)Nc2ccc(Oc3ccnc4cnccc34)cc2)c(O)c1-c1ccc(F)cc1` [Compound 643, 5-(4-fluorophenyl)-4-hydroxy-6-methyl-N-[4-(1,7-naphthyridin-4-yloxy)phenyl]pyridine-3-carboxamide], for which the half-inhibitory concentration (IC50) in experiment [1] and in experiment [2] was less than 100 nM in each case.
As to `COc1cc2c(Oc3ccc(NC(=O)c4cnc(C)c(-c5ccc(F)cc5)c4O)cc3)ccnc2cn1` [Compound 644, 5-(4-fluorophenyl)-4-hydroxy-N-[4-[(6-methoxy-1,7-naphthyridin-4-yl)oxy]phenyl]-6-methylpyridine-3-carboxamide], the 50% inhibitory concentration (IC50) in experiment [1] was 100 to 300 nM; in experiment [2] it was less than 100 nM.
For the molecule `Cc1cc2c(Oc3ccc(NC(=O)c4cnc(C)c(-c5ccc(F)cc5)c4O)cc3F)ccnc2cn1` [Compound 645, N-[3-fluoro-4-[(6-methyl-1,7-naphthyridin-4-yl)oxy]phenyl]-5-(4-fluorophenyl)-4-hydroxy-6-methylpyridine-3-carboxamide], the IC50 in experiment [1] and in experiment [2] was less than 100 nM each time.
